Data published in PMC9356065, “Novel psoralen derivatives as anti-breast cancer agents and their light-activated cytotoxicity against HER2 positive breast cancer cells” (Scientific Reports, 2022).

Key:
MDA-MB-231 [1] = assay: MTT cytotoxicity, 48 h, without UVA; format: cell-based; conditions: Homo sapiens, MDA-MB-231, light or radiation study; for inhibition at 50 µg/mL: I = %inhibition lower than 50%, read-out: Cytotoxic activity MDA-MB-231 %Inhibition; for IC50: hormone-independent breast cancer, read-out: Cytotoxic activity MDA-MB-231 IC50
Description: (§1) MDA-MB-231 (triple-negative breast cancer) was obtained from M.D. Anderson Cancer Center, Houston, TX, USA). T47-D (hormone-dependent breast carcinoma), SK-BR-3 (human HER2+ breast cancer), and MRC-5 (normal embryonic lung fibroblast) were obtained from the American Type Culture Collection (ATCC, Manassas, VA, USA).
(§2) The cytotoxic effect of tested compounds was evaluated in two breast cancer cell lines, MDA-MB-231 and T47-D. Number of survival cells after exposure to tested compounds for 48 h was determined by MTT assay, as previously described.

T47-D = assay: MTT cytotoxicity, 48 h, without UVA; format: cell-based, human; conditions: for inhibition at 50 µg/mL / IC50: Homo sapiens, T47D, light or radiation study, 48 h, without UVA; for inhibition at 50 µg/mL: I = %inhibition lower than 50%, read-out: Cytotoxic activity T47-D %Inhibition; for IC50: hormone-dependent breast cancer, read-out: Cytotoxic activity T47-D IC50; for Selectivity Index (SI): SI = IC50 for MRC-5/IC50 for T47-D
Description: Additionally, the cytotoxicity towards normal cells, human embryonal lung fibroblast cell MRC-5 was also assessed.
as §1, §2

aromatase (CYP19) = target: T1, aromatase (CYP19) (Homo sapiens, UniProt P11511); assay: Inhibition of aromatase (AIA); format: biochemical; conditions: for inhibition at 12.5 µM: I = %inhibition lower than 50%, read-out: Aromatase inhibitory activity %Inhibition
T1 sequence (P11511 1-503): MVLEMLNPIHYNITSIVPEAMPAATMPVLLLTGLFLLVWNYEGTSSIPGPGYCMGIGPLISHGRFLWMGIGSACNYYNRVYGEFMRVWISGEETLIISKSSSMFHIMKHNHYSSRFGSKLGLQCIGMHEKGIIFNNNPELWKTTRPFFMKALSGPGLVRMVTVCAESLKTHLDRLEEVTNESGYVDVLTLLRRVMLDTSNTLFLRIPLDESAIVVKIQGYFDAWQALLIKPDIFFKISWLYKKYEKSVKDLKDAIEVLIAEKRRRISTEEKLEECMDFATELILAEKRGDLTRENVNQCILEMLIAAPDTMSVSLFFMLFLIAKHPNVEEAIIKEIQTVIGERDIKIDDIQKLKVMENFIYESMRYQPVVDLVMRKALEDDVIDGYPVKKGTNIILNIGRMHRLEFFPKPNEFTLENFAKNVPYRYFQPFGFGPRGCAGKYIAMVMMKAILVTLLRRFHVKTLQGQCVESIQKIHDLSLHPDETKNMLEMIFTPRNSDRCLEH
Description: Estrogens are the critical risk factor for breast cancer initiation and progression and the aromatase enzyme involves in the final step conversion of androgens to estrogens[21],[22]. […] In this study, the synthesized psoralen derivatives were also tested for aromatase inhibitory activity (AIA) which is considered to be one of chemopreventive mechanisms for hormone dependent breast cancer.
Inhibition of the aromatase was performed using the method designed by Stresser et al.[39].

SK-BR-3 [2] = assay: Dark and light-activated (UVA) cytotoxicity, MTT; format: cell-based, human; conditions: Homo sapiens, SK-BR-3, light or radiation study; irradiation with UVA (2.0 J cm^−2); HER2+ breast cancer
Description: (§3) The selected compounds were screened for their IC50 values against both HER2+ breast cancer (SK-BR-3), and HER2− breast cancer (MDA-MB-231) in both dark and light-activated conditions (Table 2). Additionally, a negative control study was also performed with SK-BR-3 and MDA-MB-231 cells in the absence of tested compound under UVA irradiation (See Fig S7., Supporting Information).
(§4) SK-BR-3 and MDA-MB-231 cells were seeded into 96-well cell culture plates at 5 × 10^3 cells/well and incubated for 24 h at 37 °C under 5% CO2. After that, the cells were treated with 50 μM of psoralen derivatives in DMEM with 10% FBS and the cells were continued incubation for another 4 h. After incubation, the cells were washed with PBS (3 times) and then irradiated by a 365 nm lamp with the light intensity of 2.0 J cm^−2 for 12.5 min before re-incubation for another 72 h. After incubation, the cell was treated with methylthiazolyldiphenyl-tetrazolium bromide (MTT reagent 200 μL, 0.5 mg mL^−1, Sigma-Aldrich) for 2 h. After reagent removal, DMSO was added to dissolve the formazan product and the cell viabilities were determined through UV–Vis absorption of the resulting formazan at wavelength 560 nm using a microplate reader (BMG Labtech/SPECTROstar Nano). The cell morphology images were captured by using a light microscope (Microscope Nikon, inverted digital) at 20X magnification prior to treating with MTT reagent.

MDA-MB-231 [3] = assay: Dark and light-activated (UVA) cytotoxicity, MTT; format: cell-based; conditions: Homo sapiens, MDA-MB-231, light or radiation study; irradiation with UVA (2.0 J cm^−2); HER2− breast cancer
Description: as §3, §4

[4] = Scavenging of diphenyl-picryl-hydrazyl radicals (DPPH); conditions: for DPPH %Inh: screening concentration 250 µM; for IC50: read-out: DPPH IC50
Excerpt: 1. Chemoprevention activity

[5] = tested on: differentiated HL-60 cells; assay: Inhibition of TPA-induced superoxide anion radical generation (HL-60 Antioxidant); format: cell-based, human; conditions: screening concentration 100 µM; for inhibition at 100 µM: Homo sapiens, HL-60, read-out: HL-60 Antiox. %Inh
Excerpt: Inhibition of 12-O-tetradecanoylphorbol-13-acetate (TPA)-induced superoxide anion radical generation in differentiated HL-60 cells (HL-60 Antioxidant) TPA-induced superoxide anion radical formation was detected in differentiated HL-60 cells by photometric determination of cytochrome c reduction as previously described by Gerhäuser et al., 2003.ii Superoxide dismutase (SOD;15U) was a positive control. […]

[6] = Inhibition of superoxide radical formation by xanthine/xanthine oxidase (XXO); format: biochemical; conditions: for IC50: read-out: XXO IC50; for XXO %Inh: screening concentration 500 µM
Excerpt: 1. […]

xanthine oxidase = xanthine oxidase (Homo sapiens, UniProt P47989); assay: Inhibition of xanthine oxidase (IXO); format: biochemical; conditions: for inhibition at 500 µM: screening concentration 500 µM, read-out: IXO %Inh
Chain of xanthine oxidase (P47989 whole entry, species assumed): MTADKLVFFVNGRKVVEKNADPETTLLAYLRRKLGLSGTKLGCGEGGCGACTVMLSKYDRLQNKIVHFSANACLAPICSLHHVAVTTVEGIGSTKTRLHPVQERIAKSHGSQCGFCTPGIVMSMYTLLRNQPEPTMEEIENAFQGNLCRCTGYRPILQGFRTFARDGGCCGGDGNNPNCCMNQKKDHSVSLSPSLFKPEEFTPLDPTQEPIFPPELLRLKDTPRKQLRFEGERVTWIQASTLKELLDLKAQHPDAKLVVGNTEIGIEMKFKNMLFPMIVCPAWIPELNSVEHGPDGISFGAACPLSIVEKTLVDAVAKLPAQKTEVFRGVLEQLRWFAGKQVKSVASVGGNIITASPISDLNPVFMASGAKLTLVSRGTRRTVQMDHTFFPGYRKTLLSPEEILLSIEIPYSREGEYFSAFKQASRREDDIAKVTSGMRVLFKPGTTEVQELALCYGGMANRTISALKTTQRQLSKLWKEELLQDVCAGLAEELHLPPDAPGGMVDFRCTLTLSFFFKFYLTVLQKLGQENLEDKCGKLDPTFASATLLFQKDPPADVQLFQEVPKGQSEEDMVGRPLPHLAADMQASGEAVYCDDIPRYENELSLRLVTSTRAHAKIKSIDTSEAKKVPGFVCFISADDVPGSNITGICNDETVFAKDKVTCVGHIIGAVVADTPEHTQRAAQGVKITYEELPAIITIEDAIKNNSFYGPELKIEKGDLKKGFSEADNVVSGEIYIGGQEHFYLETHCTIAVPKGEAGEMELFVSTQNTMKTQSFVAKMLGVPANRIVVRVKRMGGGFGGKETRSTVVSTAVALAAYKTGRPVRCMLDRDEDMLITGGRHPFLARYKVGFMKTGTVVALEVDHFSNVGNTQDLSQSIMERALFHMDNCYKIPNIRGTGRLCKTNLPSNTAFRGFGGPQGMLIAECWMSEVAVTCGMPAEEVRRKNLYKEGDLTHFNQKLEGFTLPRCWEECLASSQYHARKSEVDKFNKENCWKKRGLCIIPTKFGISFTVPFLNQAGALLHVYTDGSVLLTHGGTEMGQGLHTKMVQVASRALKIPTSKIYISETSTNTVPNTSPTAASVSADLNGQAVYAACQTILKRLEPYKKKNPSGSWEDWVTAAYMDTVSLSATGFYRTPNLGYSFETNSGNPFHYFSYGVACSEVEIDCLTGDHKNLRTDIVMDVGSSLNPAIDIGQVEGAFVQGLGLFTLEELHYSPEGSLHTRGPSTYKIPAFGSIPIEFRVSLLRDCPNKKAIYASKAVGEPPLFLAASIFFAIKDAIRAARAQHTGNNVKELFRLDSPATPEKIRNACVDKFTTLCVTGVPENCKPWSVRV
Description: 1. […]
Inhibition of xanthine oxidase (IXO)
Xanthine oxidase activity was determined by quantifying the amount of uric acid produced
from xanthine. […]

SK-BR-3 [7] = assay: Dark and light-activated (UVA) cytotoxicity, MTT; format: cell-based; conditions: Homo sapiens, dark, HER2+ breast cancer
MDA-MB-231 [8] = assay: Dark and light-activated (UVA) cytotoxicity, MTT; format: cell-based; conditions: Homo sapiens, dark, HER2− breast cancer
SK-BR-3 cells = assay: Cell morphology by light microscope; format: cell-based, human; conditions: 48 h; for morphology of SK-BR-3 cells under light activation: UVA 2.0 J cm^−2
Description: as §4, with “After incubation, the cells were washed with PBS (3 times) and then irradiated by a 365 nm lamp with the light intensity of 2.0 J cm^−2 for 12.5 min before re-incubation for another 72 h.” left out

[9] = tested on: ERα activity in MCF-7 cells; parameters: method as in PMID 31673107; conditions: read-out: IC50 antagonism of ERα activity in MCF-7 cells; cited from earlier work

SMILES | inhibition at 12.5 µM (aromatase (CYP19)) [%] | inhibition at 500 µM (xanthine oxidase) [%] | melting point [°C] | inhibition at 50 µg/mL (MDA-MB-231 [1]) [%] | inhibition at 50 µg/mL (T47-D) [%] | IC50 (SK-BR-3 [2]) [µM] | IC50 (MDA-MB-231 [3]) [µM] | DPPH %Inh [4] [%] | inhibition at 100 µM [5] [%] | IC50 (SK-BR-3 [7]) [µM] | IC50 (MDA-MB-231 [8]) [µM] | other results
O=c1ccc2cc3ccoc3c(O)c2o1 [xanthotoxol] |  |  |  |  |  |  |  |  |  |  |  | IC50 [9]: 0.7 µM
COc1c2occc2c(NCc2ccccc2)c2ccc(=O)oc12 [4a, 4-(Benzylamino)-9-methoxy-7H-furo[3,2-g]chromen-7-one] | 46 |  | 168 to 169 |  |  |  |  |  | 7 |  |  | IC50 (MDA-MB-231 [1]): > 100 µM; IC50 (T47-D): 31.1 ± 1.54 µM; Selectivity Index (SI) (T47-D): > 5.0; IC50 [4]: 145 µM; XXO %Inh [6]: 34%; IC50 (xanthine oxidase): 27.4 µM
O=c1ccc2ccc3occc3c2o1 [angelicin] |  |  |  |  |  |  |  |  |  |  |  | IC50 [9]: 11 µM
COc1c2c(c(NC(=S)Nc3ccccc3)c3ccoc13)C(OC)CC(=O)O2 (stereo not drawn) [compound 6, 1-(5,9-Dimethoxy-7-oxo-6,7-dihydro-5H-furo[3,2-g]chromen-4-yl)-3-phenylthiourea] | 18 | 48 | 191 to 192 |  |  |  |  |  |  |  |  | IC50 (MDA-MB-231 [1]): 91.9 ± 4.49 µM; IC50 (T47-D): > 100 µM; IC50 [4]: 52.6 µM; HL-60 Antiox. %Inh [5]: Toxic; XXO %Inh [6]: 24%
O=c1ccc2cc3ccoc3cc2o1 [psoralen] |  |  |  |  |  |  |  |  |  |  |  | IC50 [9]: 24.1 µM
COc1c2occc2c(NS(=O)(=O)c2ccccc2)c2ccc(=O)oc12 [compound 5, N-(9-Methoxy-7-oxo-7H-furo[3,2-g]chromen-4-yl)benzenesulfonamide] | 33 | 21 | 208 to 209 | 36 |  |  |  | 8 | 32 |  |  | IC50 (T47-D): 87.9 ± 6.34 µM; Selectivity Index (SI) (T47-D): > 1.5; IC50 [6]: 90.7 µM

Further lines, with some results ahead:

inhibition at 12.5 µM (aromatase (CYP19)) [%] | inhibition at 500 µM (xanthine oxidase) [%] | melting point [°C] | SMILES | inhibition at 50 µg/mL (MDA-MB-231 [1]) [%] | inhibition at 50 µg/mL (T47-D) [%] | IC50 (SK-BR-3 [2]) [µM] | IC50 (MDA-MB-231 [3]) [µM] | DPPH %Inh [4] [%] | inhibition at 100 µM [5] [%] | IC50 (SK-BR-3 [7]) [µM] | IC50 (MDA-MB-231 [8]) [µM] | other results
8 | 17 | 234 to 235 | COc1c2occc2c(NC(=O)C(C)C)c2ccc(=O)oc12 [3k, N-(9-Methoxy-7-oxo-7H-furo[3,2-g]chromen-4-yl)isobutyramide] | 4 | 36 | 66.1 ± 5.21 | > 100 | 2 | 11 | > 100 | > 100 | IC50 [6]: 394 µM
15 |  | 211 to 212 | COc1ccc(C(=O)Nc2c3ccoc3c(OC)c3oc(=O)ccc23)cc1 [3e, 4-Methoxy-N-(9-methoxy-7-oxo-7H-furo[3,2-g]chromen-4-yl)benzamide] | 19 | 38 | 66.7 ± 2.75 | > 100 | 4 | 0 | > 100 | > 100 | 
16 |  | 227 to 228 | COc1c2occc2c(NC(=O)c2ccco2)c2ccc(=O)oc12 [3g, N-(9-Methoxy-7-oxo-7H-furo[3,2-g]chromen-4-yl)furan-2-carboxamide] | 0.5 | 24 | 2.71 ± 0.84 | > 100 | 3 | 17 | > 100 | > 100 | morphology of SK-BR-3 cells under light activation (SK-BR-3 cells): significantly changed; morphology of SK-BR-3 cells under dark condition (SK-BR-3 cells): maintained morphology of intact cells
14 |  | 210 to 212 | COc1c2occc2c(NC(=O)C(C)(C)C)c2ccc(=O)oc12 [3l, N-(9-Methoxy-7-oxo-7H-furo[3,2-g]chromen-4-yl)pivalamide] | 1 | 21 | 48.1 ± 3.07 | > 100 | 1 | 10 | > 100 | > 100 | 
7 | 47 | 251 to 252 | COc1c2occc2c(NC(C)=O)c2ccc(=O)oc12 [3i, N-(9-Methoxy-7-oxo-7H-furo[3,2-g]chromen-4-yl)acetamide] | 6 | 20 |  |  | 1 | 11 |  |  | 
8 | 29 | 233 to 234 | CCC(=O)Nc1c2ccoc2c(OC)c2oc(=O)ccc12 [3j, N-(9-Methoxy-7-oxo-7H-furo[3,2-g]chromen-4-yl)propionamide] | 3 | 22 | 3.05 ± 1.02 | > 100 | 2 | 11 | > 100 | > 100 | IC50 [6]: 187 µM; morphology of SK-BR-3 cells under light activation (SK-BR-3 cells): significantly changed; morphology of SK-BR-3 cells under dark condition (SK-BR-3 cells): maintained morphology of intact cells
 |  | 170 to 171 | CCCCCC(=O)N(C(=O)CCCCC)c1c2ccoc2c(OC)c2oc(=O)ccc12 [3m, N-Hexanoyl-N-(9-methoxy-7-oxo-7H-furo[3,2-g]chromen-4-yl)hexanamide] | 5 | 15 | 27.1 ± 1.2 | > 100 | 1 | 0 | > 100 | > 100 | IC50 (aromatase (CYP19); read-out: Aromatase inhibitory activity IC50): 9.4 ± 0.4 µM; XXO %Inh [6]: 2%
